Patent publication US10501518B2 (priority 2013, dated 2019)
Starred links: 1 amine or outer side, 2 acyl side, 3 side chain; linkers in the order of their positions; H or OH if unused. Non-standard residues stand in square brackets, D forms with d. Residues, ends and D or L forms follow the SMILES beside them. *: point of attachment. NH(1S,2S-2-CONH2-cPent) = NC(=O)[C@H]1CCC[C@@H]1N*; X12 = O=C([C@H]1CCC[C@@H]1N[*:1])[*:2]; X13 = O=C([C@H]1CNC[C@@H]1N[*:1])[*:2]; ACPC(1S,2S) = N[C@H]1CCC[C@@H]1C(=O)*; hArg = N=C(N)NCCCC[C@H](N)C(=O)O; Aib = CC(C)(N)C(=O)O

Assays:
PTHR = target: T1, PTHR (Homo sapiens, UniProt Q03431); experiment: cAMP induction potency, N-terminal modifications and cyclic constraints (Tables 9, 10, 13); format: cell-based; details: Table 9
T1 construct: expressed in transfected cells
T1 sequence (Q03431 27-593): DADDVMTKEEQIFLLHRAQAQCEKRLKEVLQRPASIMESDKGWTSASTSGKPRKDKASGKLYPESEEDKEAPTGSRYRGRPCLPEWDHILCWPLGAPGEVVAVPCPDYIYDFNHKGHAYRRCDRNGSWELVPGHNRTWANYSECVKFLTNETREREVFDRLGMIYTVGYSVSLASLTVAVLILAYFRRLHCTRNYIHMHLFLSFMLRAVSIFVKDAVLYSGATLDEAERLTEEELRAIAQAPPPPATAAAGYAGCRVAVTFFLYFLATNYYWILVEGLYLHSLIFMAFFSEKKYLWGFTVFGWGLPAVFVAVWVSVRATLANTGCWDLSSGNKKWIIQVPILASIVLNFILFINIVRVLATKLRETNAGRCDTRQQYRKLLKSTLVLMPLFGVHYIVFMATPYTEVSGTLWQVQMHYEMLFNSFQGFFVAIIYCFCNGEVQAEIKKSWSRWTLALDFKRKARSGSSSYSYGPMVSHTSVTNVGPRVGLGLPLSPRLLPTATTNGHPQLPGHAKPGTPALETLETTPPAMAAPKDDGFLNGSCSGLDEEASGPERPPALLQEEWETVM
Protocol: For cAMP dose-response assays, monolayers of confluent HEK 293 cells were pre-incubated with buffer containing d-luciferin (0.5 mM) in 96 well plates at room temperature until a stable baseline level of luminescence was established (30 min). Varying concentrations of agonist were then added, and the time course of luminescence response was recorded using a Perkin Elmer plate reader following α/β-peptide addition.

[1] = Calcemic response in mice after subcutaneous injection; format: in vivo; details: 20 nmol/kg
Protocol: Compound concentrations were determined by submitting plasma to a cAMP GloSensor assay, quantification of luminescence readout, and conversion to peptide concentration via standard curve. […] See also FIGS. 12A, 12B and 12C.
Mice (C57BL/6, male, age 9-12 weeks) were treated in accordance with the ethical guidelines adopted by Massachusetts General Hospital. […] Blood was withdrawn just prior to injection (t=0) or at times thereafter. Tail vein blood was collected and immediately used for analysis. Blood Ca^2+ concentration was measured with a Chiron Diagnostics model 634 Ca^2+/pH analyzer.

[2] = mouse, in vivo; cited from earlier work
[3] = Stability in simulated gastric fluid; format: in vitro ADME

CC[C@H](C)[C@H](NC(=O)[C@H](CCC(=O)O)NC(=O)[C@H](CO)NC(=O)[C@@H](NC(=O)[C@@H](N)CO)C(C)C)C(=O)N[C@@H](CCC(N)=O)C(=O)N[C@@H](CC(C)C)C(=O)N[C@@H](CCSC)C(=O)N[C@@H](Cc1c[nH]cn1)C(=O)N[C@@H](CC(N)=O)C(=O)N[C@@H](CC(C)C)C(=O)NCC(=O)N[C@@H](CCCCN)C(=O)N[C@H]1CCC[C@@H]1C(=O)N[C@@H](CC(C)C)C(=O)N[C@@H](CC(N)=O)C(=O)N[C@@H](CO)C(=O)N[C@H]1CCC[C@@H]1C(=O)N[C@@H](CCC(=O)O)C(=O)N[C@@H](CCCNC(=N)N)C(=O)N[C@H](C(=O)N[C@H]1CNC[C@@H]1C(=O)N[C@@H](Cc1c[nH]c2ccccc12)C(=O)N[C@@H](CC(C)C)C(=O)N[C@@H](CCCNC(=N)N)C(=O)N[C@H]1CNC[C@@H]1C(=O)N[C@@H](CCCCN)C(=O)N[C@@H](CC(C)C)C(=O)N[C@@H](CCC(N)=O)C(=O)N[C@H]1CCC[C@@H]1C(=O)N[C@H](C(=O)N[C@@H](Cc1c[nH]cn1)C(=O)N[C@@H](CC(N)=O)C(=O)N[C@H]1CCC[C@@H]1C(N)=O)C(C)C)C(C)C [FcycD6, SVSEIQLMHNLGKXLNSXERVZWLRZKLQXVHNX-NH2] (H-SVSEIQLMHNLGK[X12]LNS[X12]ERV[X13]WLR[X13]KLQ[X12]VHN-{NH(1S,2S-2-CONH2-cPent)}; N-terminus assumed)
Fold PTH (PTHR): 3.2
EC50 (PTHR; read-out: EC50, nM (cAMP induction potency)): 0.26 ± 0.05 nM
calcemic response (blood Ca^2+ concentration) [1]: very marked activity to increase calcium blood levels

CC[C@H](C)[C@H](NC(=O)[C@H](CCC(=O)O)NC(=O)[C@H](C)NC(=O)[C@@H](NC(=O)[C@H](C)N)C(C)C)C(=O)N[C@@H](CCC(N)=O)C(=O)N[C@@H](CC(C)C)C(=O)N[C@@H](CCSC)C(=O)N[C@@H](Cc1cnc[nH]1)C(=O)N[C@@H](CCC(N)=O)C(=O)N[C@@H](CCCCNC(=N)N)C(=O)N[C@@H](C)C(=O)N[C@@H](CCCCN)C(=O)N[C@@H](Cc1c[nH]c2ccccc12)C(=O)N[C@@H](CC(C)C)C(=O)N[C@@H](CC(N)=O)C(=O)N[C@@H](CO)C(=O)N[C@@H](CCSC)C(=O)N[C@@H](CCCNC(=N)N)C(=O)N[C@@H](CCCNC(=N)N)C(=O)N[C@H](C(=O)N[C@@H](CCC(=O)O)C(=O)N[C@@H](Cc1c[nH]c2ccccc12)C(=O)N[C@@H](CC(C)C)C(=O)N[C@@H](CCCNC(=N)N)C(=O)N[C@@H](CCCCN)C(=O)N[C@@H](CCCCN)C(=O)N[C@@H](CC(C)C)C(=O)N[C@@H](CCC(N)=O)C(=O)N[C@@H](CC(=O)O)C(=O)N[C@H](C(=O)N[C@@H](Cc1cnc[nH]1)C(=O)N[C@@H](CC(N)=O)C(=O)N[C@@H](Cc1ccccc1)C(N)=O)C(C)C)C(C)C [M-PTH(1-34)] (H-AVAEIQLMHQ[hArg]AKWLNSMRRVEWLRKKLQDVHNF-NH2)
bioavailability (previously shown) [2]: native-like bioavailability

CSCC[C@H](NC(=O)[C@H]1CCC[C@@H]1NC(=O)[C@H](CCC(N)=O)NC(=O)[C@H]1CCC[C@@H]1NC(=O)[C@H](CCC(=O)O)NC(=O)C(C)(C)NC(=O)[C@@H](NC(=O)[C@H]1CCC[C@@H]1N)C(C)C)C(=O)N[C@@H](Cc1cnc[nH]1)C(=O)N[C@@H](CCC(N)=O)C(=O)N[C@@H](CCCCNC(=N)N)C(=O)N[C@@H](C)C(=O)N[C@@H](CCCCN)C(=O)N[C@H]1CCC[C@@H]1C(=O)N[C@@H](CC(C)C)C(=O)N[C@@H](CC(N)=O)C(=O)N[C@@H](CO)C(=O)N[C@H]1CCC[C@@H]1C(=O)N[C@@H](CCCNC(=N)N)C(=O)N[C@@H](CCCNC(=N)N)C(=O)N[C@H](C(=O)N[C@H]1CNC[C@@H]1C(=O)N[C@@H](Cc1c[nH]c2ccccc12)C(=O)N[C@@H](CC(C)C)C(=O)N[C@@H](CCCNC(=N)N)C(=O)N[C@H]1CNC[C@@H]1C(=O)N[C@@H](CCCCN)C(=O)N[C@@H](CC(C)C)C(=O)N[C@@H](CCC(N)=O)C(=O)N[C@H]1CCC[C@@H]1C(=O)N[C@H](C(=O)N[C@@H](Cc1cnc[nH]1)C(=O)N[C@@H](CC(N)=O)C(=O)N[C@H]1CCC[C@@H]1C(N)=O)C(C)C)C(C)C [M-X1,5,7-FcycD6, XVUEXQXMHQ^hRAKXLNSXRRVZWLRZKLQXVHNX--NH2] ({ACPC(1S,2S)}-V[Aib]E[X12]Q[X12]MHQ[hArg]AK[X12]LNS[X12]RRV[X13]WLR[X13]KLQ[X12]VHN-{NH(1S,2S-2-CONH2-cPent)})
stability in simulated gastric fluid [3]: good stability
